# How the values were obtained:
# Generic Yeast [1] = experiment: Inoculation (challenge) study in creamy salad dressing, generic yeast; format: cell-based; details: creamy salad dressing emulsion; for Treatment Performance Generic Yeast LDIC (Log Difference in micro levels as compared to the Initial Count): negative values represent a degree of inhibition; for Treatment Performance Generic Yeast LDPC (Log Difference in micro levels as compared to the Positive Control without treatment): negative values represent degree of inhibition
# From the text: (§1) Turning now to the table, provided herein are formulations of a natural antimicrobial tested using a water continuous emulsion with a creamy texture and flavor, such as a creamy style salad dressing. It is noted that not only other types of water continuous emulsions, but also many other types of foods would also benefit from the antimicrobial nature of these formulations. As shown, the emulsion is standardized for a ratio of acid-to-moisture and salt-to-moisture values of a minimum of about 1.5 and about 4.8, respectively. When the emulsion was inoculated individually with cocktails of lactic acid bacteria, general yeast, or acid-tolerant yeast (such as Z. bailii) at approximately 4.0 logs, the emulsion spoils with microbial growth up to 7.0 logs. The overall pH of the present formulations can be anywhere from about 2.0 to about 6.0. Lower pH can often inhibit microbial growth, irrespective of other antimicrobial agents present. In the present formulations however, it was observed that the presence of antimicrobial agents such as cultured milks and/or organic acid salts were effective antimicrobial inhibitors, even at higher pH levels. High concentrations of undissociated organic acids can produce greater microbial inhibition. Increasing pH is associated with decreasing concentrations of undissociated acid. Thus, the microbial inhibition in a food that approaches a pH of 6.0 is unexpected.
# (§2) The label LDPC indicates the Log Difference in micro levels as compared to the Positive Control without treatment (negative values represent degree of inhibition). The label LDIC indicates the Log Difference in micro levels as compared to the Initial Count or micro level of that treatment (negative values represent a degree of inhibition).
# (§3) Two levels of Ca-Acetate alone and in combination with two levels of nisin and a nisin containing cultured ingredient were compared to determine their effect on typical spoilage (generic) yeast, the preservative resistant yeast, Z. bailii, and Lactobacillus.
# (§4) Specifically, the samples were subjected to three different inocula (at log CFU 3-4) that contained microorganisms previously shown to spoil salad dressing. These included a cocktail of seven strains comprising various genera of yeast not known to be preservative resistant, a three strain cocktail of the preservative resistant Zygosaccharomyces bailii, and a three strain cocktail of Lactobacillus spp. (L. plantarum, L. fermentum, L. buchneri). The sample was then incubated at 22 degrees Celsius, and tested weekly for four weeks for the presence of these microorganisms.
# Lactobacillus [2] = experiment: Inoculation (challenge) study in creamy salad dressing, Lactobacillus / lactic acid bacteria; format: cell-based, Lactobacillus spp. (L. plantarum, L. fermentum, L. buchneri); details: for Treatment Performance Lactobacillus LDIC (Log Difference in micro levels as compared to the Initial Count) / Treatment Performance Lactobacillus LDPC (Log Difference in micro levels as compared to the Positive Control without treatment): creamy salad dressing emulsion; for Treatment Performance Lactobacillus LDIC (Log Difference in micro levels as compared to the Initial Count): negative values represent a degree of inhibition; for Treatment Performance Lactobacillus LDPC (Log Difference in micro levels as compared to the Positive Control without treatment): negative values represent degree of inhibition
# From the text: as §1, §2, §3, §4
# Z. bailii = experiment: Inoculation (challenge) study in creamy salad dressing, acid-tolerant yeast Z. bailii; format: cell-based, Zygosaccharomyces bailii; details: for inhibition of Z. bailii (in words): Experiments 1-4; for Treatment Performance Z. bailii LDIC (Log Difference in micro levels as compared to the Initial Count) / Treatment Performance Z. bailii LDPC (Log Difference in micro levels as compared to the Positive Control without treatment): creamy salad dressing emulsion; for Treatment Performance Z. bailii LDIC (Log Difference in micro levels as compared to the Initial Count): negative values represent a degree of inhibition; for Treatment Performance Z. bailii LDPC (Log Difference in micro levels as compared to the Positive Control without treatment): negative values represent degree of inhibition
# From the text: as §1, §2, §3, §4
# Generic Yeast [3] = experiment: Inoculation (challenge) study in creamy salad dressing, generic yeast; format: cell-based; details: Experiments 1-4
# Lactobacillus [4] = experiment: Inoculation (challenge) study in creamy salad dressing, Lactobacillus / lactic acid bacteria; format: cell-based, Lactobacillus spp. (L. plantarum, L. fermentum, L. buchneri); details: Experiments 1-4
# [5] = listed as three percent Ca-Acetate
# [6] = listed as Three percent Na-Acetate
compound,measurement,setting,value
"CC(=O)[O-].CC(=O)[O-].[Ca+2] [3% Ca acetate, calcium (Ca) acetate]",Treatment Performance Generic Yeast LDIC (Log Difference in micro levels as compared to the Initial Count),Generic Yeast [1],−1 Log
same,Treatment Performance Generic Yeast LDIC (Log Difference in micro levels as compared to the Initial Count),Generic Yeast [1]; listed as Ca acetate (high),−2 Log
same,Treatment Performance Generic Yeast LDPC (Log Difference in micro levels as compared to the Positive Control without treatment),Generic Yeast [1],−3 Log
same,Treatment Performance Generic Yeast LDPC (Log Difference in micro levels as compared to the Positive Control without treatment),Generic Yeast [1]; listed as Ca acetate (high),−4 Log
same,inhibition of lactic acid bacteria / Lactobacillus (in words),Lactobacillus [2]; Experiments 1-4,inhibited the growth
same,Treatment Performance Lactobacillus LDIC (Log Difference in micro levels as compared to the Initial Count),Lactobacillus [2],−2.5 Log
same,Treatment Performance Lactobacillus LDIC (Log Difference in micro levels as compared to the Initial Count),Lactobacillus [2]; listed as Ca acetate (high),0.5 Log
same,Treatment Performance Lactobacillus LDPC (Log Difference in micro levels as compared to the Positive Control without treatment),Lactobacillus [2],−2.5 Log
same,Treatment Performance Lactobacillus LDPC (Log Difference in micro levels as compared to the Positive Control without treatment),Lactobacillus [2]; listed as Ca acetate (high),1.5 Log
same,inhibition of Z. bailii (in words),Z. bailii; listed as 3 percent Ca-Acetate,needed to inhibit
same,inhibition of Z. bailii (in words),Z. bailii; [5],but not Z. bailii
same,Treatment Performance Z. bailii LDIC (Log Difference in micro levels as compared to the Initial Count),Z. bailii,1.5 Log
same,Treatment Performance Z. bailii LDIC (Log Difference in micro levels as compared to the Initial Count),Z. bailii; listed as Ca acetate (high),0.5 Log
same,Treatment Performance Z. bailii LDPC (Log Difference in micro levels as compared to the Positive Control without treatment),Z. bailii,0.5 Log
same,Treatment Performance Z. bailii LDPC (Log Difference in micro levels as compared to the Positive Control without treatment),Z. bailii; listed as Ca acetate (high),−1.5 Log
same,inhibition of general yeast (in words),Generic Yeast [3]; [5],inhibited the growth
"CC(=O)[O-].[Na+] [3% Na acetate, sodium (Na) acetate]",Treatment Performance Generic Yeast LDIC (Log Difference in micro levels as compared to the Initial Count),Generic Yeast [1],−3.5 Log
same,Treatment Performance Generic Yeast LDIC (Log Difference in micro levels as compared to the Initial Count),Generic Yeast [1]; listed as 3% Na Ac,1 Log
same,Treatment Performance Generic Yeast LDPC (Log Difference in micro levels as compared to the Positive Control without treatment),Generic Yeast [1],0 Log
same,Treatment Performance Generic Yeast LDPC (Log Difference in micro levels as compared to the Positive Control without treatment),Generic Yeast [1]; listed as 3% Na Ac,−0.5 Log
same,Treatment Performance Lactobacillus LDIC (Log Difference in micro levels as compared to the Initial Count),Lactobacillus [2],−3.5 Log
same,Treatment Performance Lactobacillus LDPC (Log Difference in micro levels as compared to the Positive Control without treatment),Lactobacillus [2],0 Log
same,inhibition of Z. bailii (in words),Z. bailii; listed as 3 percent Na-Acetate,significant antimycotic inhibition
same,inhibition of Z. bailii (in words),Z. bailii; [6],inhibited all of the tested spoilage organisms
same,Treatment Performance Z. bailii LDIC (Log Difference in micro levels as compared to the Initial Count),Z. bailii,−0.5 Log
same,Treatment Performance Z. bailii LDIC (Log Difference in micro levels as compared to the Initial Count),Z. bailii; listed as 3% Na Ac,−1 Log
same,Treatment Performance Z. bailii LDPC (Log Difference in micro levels as compared to the Positive Control without treatment),Z. bailii,−2 Log
same,Treatment Performance Z. bailii LDPC (Log Difference in micro levels as compared to the Positive Control without treatment),Z. bailii; listed as 3% Na Ac,−3 Log
same,inhibition of general yeast (in words),Generic Yeast [3]; listed as 3 percent Na-Acetate,did not inhibit
same,inhibition of general yeast (in words),Generic Yeast [3]; [6],inhibited all of the tested spoilage organisms
same,inhibition of lactic acid bacteria / Lactobacillus (in words),Lactobacillus [4]; listed as 3 percent Na-Acetate,did not inhibit
same,inhibition of lactic acid bacteria / Lactobacillus (in words),Lactobacillus [4]; [6],inhibited all of the tested spoilage organisms
"CC(=O)[O-].CC(=O)[O-].[Ca+2] [Ca acetate (mid), calcium (Ca) acetate]",Treatment Performance Generic Yeast LDIC (Log Difference in micro levels as compared to the Initial Count),Generic Yeast [1],−0.5 Log
same,Treatment Performance Generic Yeast LDPC (Log Difference in micro levels as compared to the Positive Control without treatment),Generic Yeast [1],−2.5 Log
same,Treatment Performance Lactobacillus LDIC (Log Difference in micro levels as compared to the Initial Count),Lactobacillus [2],−1.5 Log
same,Treatment Performance Lactobacillus LDPC (Log Difference in micro levels as compared to the Positive Control without treatment),Lactobacillus [2],−0.5 Log
same,Treatment Performance Z. bailii LDIC (Log Difference in micro levels as compared to the Initial Count),Z. bailii,2 Log
same,Treatment Performance Z. bailii LDPC (Log Difference in micro levels as compared to the Positive Control without treatment),Z. bailii,0.5 Log
same,inhibition of general yeast (in words),Generic Yeast [3]; listed as 1.5 percent Ca-Acetate,needed to inhibit
Nisin [Nisin (high)],Treatment Performance Generic Yeast LDIC (Log Difference in micro levels as compared to the Initial Count),Generic Yeast [1],3 Log
same,Treatment Performance Generic Yeast LDPC (Log Difference in micro levels as compared to the Positive Control without treatment),Generic Yeast [1],1.5 Log
same,Treatment Performance Lactobacillus LDIC (Log Difference in micro levels as compared to the Initial Count),Lactobacillus [2],0 Log
same,Treatment Performance Lactobacillus LDPC (Log Difference in micro levels as compared to the Positive Control without treatment),Lactobacillus [2],−2.5 Log
same,Treatment Performance Z. bailii LDIC (Log Difference in micro levels as compared to the Initial Count),Z. bailii,2 Log
same,Treatment Performance Z. bailii LDPC (Log Difference in micro levels as compared to the Positive Control without treatment),Z. bailii,0 Log
Nisin [Nisin (mid)],Treatment Performance Generic Yeast LDIC (Log Difference in micro levels as compared to the Initial Count),Generic Yeast [1],3.5 Log
same,Treatment Performance Generic Yeast LDPC (Log Difference in micro levels as compared to the Positive Control without treatment),Generic Yeast [1],1.5 Log
same,Treatment Performance Lactobacillus LDIC (Log Difference in micro levels as compared to the Initial Count),Lactobacillus [2],−1 Log
same,Treatment Performance Lactobacillus LDPC (Log Difference in micro levels as compared to the Positive Control without treatment),Lactobacillus [2],−2.5 Log
same,Treatment Performance Z. bailii LDIC (Log Difference in micro levels as compared to the Initial Count),Z. bailii,2 Log
same,Treatment Performance Z. bailii LDPC (Log Difference in micro levels as compared to the Positive Control without treatment),Z. bailii,0 Log
